Broadly, the Ki is a dissociation constant, usually derived from enzyme kinetics or from competition with a known ligand. The low end stands for tighter binding, the high end for weaker binding.

Structures are written as SMILES. A value given as a limit tells only on which side of the number the result lay.

For one experiment, the target named is T1, Histamine H3 receptor (Rattus norvegicus, UniProt Q9QYN8). Kind of experiment: In vitro antagonism of the histamine H3-receptor in the rat cerebral cortex. The experiment is classed as functional, tissue-based.
T1 sequence (Q9QYN8 whole entry): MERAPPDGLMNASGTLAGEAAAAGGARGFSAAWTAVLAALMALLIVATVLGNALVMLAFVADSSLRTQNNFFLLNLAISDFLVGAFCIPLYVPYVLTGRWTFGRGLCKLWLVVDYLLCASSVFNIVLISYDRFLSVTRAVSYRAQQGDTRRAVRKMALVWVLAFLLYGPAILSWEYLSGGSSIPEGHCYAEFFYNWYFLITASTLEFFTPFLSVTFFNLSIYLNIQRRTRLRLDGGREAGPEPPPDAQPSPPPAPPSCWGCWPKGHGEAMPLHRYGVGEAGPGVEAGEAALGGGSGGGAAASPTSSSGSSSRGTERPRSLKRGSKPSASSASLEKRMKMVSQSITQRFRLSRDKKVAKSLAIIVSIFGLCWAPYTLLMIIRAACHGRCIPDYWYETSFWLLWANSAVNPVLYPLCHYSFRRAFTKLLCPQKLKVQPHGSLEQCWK
In turn, `c1c[nH]c(SCCc2cnc[nH]2)n1` had an inhibitory constant (Ki) of 400 nM.
The molecule `S=C(NCCCc1cnc[nH]1)NC1CCCCC1` displayed a Ki of 13 nM.
Same read-out and setting: to `S=C(NCCc1c[nH]cn1)NC1CCCCC1` belongs about 200 nM; to `CNC(=S)NCCCCc1cnc[nH]1` [BURIMAMIDE], 70 nM; to `O=[N+]([O-])c1cc[n+]([O-])c(NCCc2c[nH]cn2)c1`, 53 nM.
On the same count and under the same terms, next, `COC(=O)c1ccc(NCCc2cnc[nH]2)nc1`: 42 nM; `c1cnc(NCCc2c[nH]cn2)cn1`: 200 nM; `c1ccc(SCCc2cnc[nH]2)nc1`: 92 nM.
For `O=[N+]([O-])c1ccc(NCCc2c[nH]cn2)nc1`, the affinity, expressed as Ki, was 29 nM.
The same measure, in the same setting: to `O=[N+]([O-])c1ccc(SCc2c[nH]cn2)nc1` belongs about 600 nM; to `c1csc(NCCc2cnc[nH]2)n1`, 340 nM; to `c1ccc(NCCc2c[nH]cn2)nc1`, 200 nM.
Consider `O=[N+]([O-])c1ccc(NCCc2ccccn2)nc1`, for which the Ki is about 1000 nM.
Same read-out and setting: to `S=C(NCCSCc1c[nH]cn1)NC1CCCCC1` belongs about 500 nM; to `O=[N+]([O-])c1ccc(NCCCc2c[nH]cn2)nc1`, 170 nM.
Still for that read-out and setting: to `S=C(NC1CCCCC1)N1CCC(c2cnc[nH]2)CC1` [THIOPERAMIDE] belongs 4.3 nM; to `c1ccc(CCNc2ncccn2)nc1`, over 10000 nM; to `FC(F)(F)c1ccc(NCCc2cnc[nH]2)nc1`, 17 nM.
The same measure, in the same setting: to `FC(F)(F)c1ccc(N2CCC(c3cnc[nH]3)CC2)nc1` belongs 42 nM.
`Clc1cc(NCCc2cnc[nH]2)ccn1`: the Ki came to 160 nM.
In turn, `O=[N+]([O-])c1cccnc1NCCc1c[nH]cn1` yielded a Ki of 240 nM.

In another experiment the target is T1, Histamine H3 receptor. Kind of experiment: The compound was tested in vitro for antagonistic activity against H3-receptor in the rat cerebral cortex; Not active (tested up to 1000 nM). The experiment is classed as functional, tissue-based.
Regarding `S=C(NCCCn1ccnc1)NC1CCCCC1`, the inhibition constant (Ki) result was “Not Active”.

The record behind these values is ChEMBL document CHEMBL1128690, “Design of potent non-thiourea H3-receptor histamine antagonists” (J Med Chem, 1995).
